From patent US7074742B2, “Pyridinyl amides and imides for use as fungicides” (E. I. du Pont de Nemours and Company, priority 2000, dated 2006)
Marks after values point to notes of the source that are not given here.

Columns and labels:
Format in all cases: in vivo
Plasmopara viticola [1] = assay: TEST E: preventive spray on grape seedlings, grape downy mildew, disease rating
Plasmopara viticola [2] = assay: TEST G: curative spray on inoculated grape seedlings, grape downy mildew, disease rating; conditions: for curative utility: curative (post-infection) use, especially for grape downy mildew, statement in words; for Test G disease control rating (grape downy mildew, curative): curative spray on inoculated grape seedlings
Puccinia recondita = assay: TEST B: preventive spray on wheat seedlings, wheat leaf rust, disease rating; conditions: 100 = 100% disease control, 0 = no control, concentration not marked in table
[3] = test system: Erysiphe graminis f. sp. tritici; assay: TEST A: preventive spray on wheat seedlings, wheat powdery mildew, disease rating; conditions: 100 = 100% disease control, 0 = no control relative to controls, concentration not marked in table
Phytophthora infestans = conditions: preventive spray on tomato seedlings; 100 = 100% disease control, 0 = no control; concentration not marked in table
Pyricularia oryzae = conditions: preventive spray on rice seedlings; 100 = 100% disease control, 0 = no control; concentration not marked in table
[4] = 100 = 100% disease control, 0 = no control, concentration not marked in table
[5] = concentration not marked in table

Row | SMILES | Test E disease control rating (grape downy mildew) (Plasmopara viticola [1]; [4]) | curative utility (Plasmopara viticola [2]) | Test G disease control rating (grape downy mildew, curative) (Plasmopara viticola [2]; 100 ppm) | Test B disease control rating (wheat leaf rust) (Puccinia recondita) | Test A disease control rating (wheat powdery mildew) [3] | Test D disease control rating (potato and tomato late blight) (Phytophthora infestans) | Test C disease control rating (rice blast) (Pyricularia oryzae) | Test E disease control rating (grape downy mildew) (Plasmopara viticola [1]; 100 ppm) | Test G disease control rating (grape downy mildew, curative) (Plasmopara viticola [2]; 20 ppm) | Test G disease control rating (grape downy mildew, curative) (Plasmopara viticola [2]; [5])
1 | O=C(NCc1ncc(C(F)(F)F)cc1Cl)c1c(Cl)cncc1Cl [Compound 35] | 100% | significant curative utility | 100* % | 30% | 0% | 100% | – | – | – | –
2 | COc1ncccc1C(=O)NCc1ncc(C(F)(F)F)cc1Cl [Cmpd 12] | 24% | – | – | 19% | 0% | 7% | 0% | – | – | –
3 | O=C(NCc1ncc(C(F)(F)F)cc1Cl)c1cccnc1Sc1ccccc1 [Cmpd 16] | 8% | – | – | 9% | 0% | 34% | 100% | – | – | –
4 | O=C(NCc1ncc(C(F)(F)F)cc1Cl)c1cccnc1Oc1ccccc1 [Cmpd 15] | 8% | – | – | 38% | 0% | 7% | 30% | – | – | –
5 | O=C(NCc1ncc(C(F)(F)F)cc1Cl)c1cncc(Br)c1 [Cmpd 10] | 0% | – | – | 9% | 0% | 16% | 74% | – | – | –
6 | O=C(NCc1ncc(C(F)(F)F)cc1Cl)c1cccnc1O [Cmpd 11] | 8% | – | – | 9% | 0% | 7% | 0% | – | – | –
7 | O=C(NCc1ncc(C(F)(F)F)cc1Cl)c1cnc(Cl)c(Cl)c1 [Cmpd 7] | – | – | – | 0% | 0% | – | – | – | – | –
8 | CCOc1ncccc1C(=O)NCc1ncc(C(F)(F)F)cc1Cl [Cmpd 13] | 23% | – | – | 9% | 0% | 3% | 0% | – | – | –
9 | Cc1ncccc1C(=O)NCc1ccc(Cl)nc1 [Cmpd 32] | – | – | – | 0% | 0% | 32% | 0% | – | – | –
10 | Cc1ccc(C(=O)NCc2ncc(C(F)(F)F)cc2Cl)c(O)n1 [Cmpd 19] | 8% | – | – | 9% | 0% | 7% | 0% | – | – | –
11 | COCc1nc(C(F)(F)F)ccc1C(=O)NCc1ncc(C(F)(F)F)cc1Cl [Cmpd 23] | 8% | – | – | 9% | 72% | 32% | 7% | – | – | –
12 | O=C(NCc1ncc(C(F)(F)F)cc1Cl)c1ccc(C(F)(F)F)nc1-c1ccccc1 [Cmpd 24] | 8% | – | – | 0% | 0% | 25% | 7% | – | – | –
13 | O=C(NCc1ncc(C(F)(F)F)cc1Cl)c1ccc(C(F)(F)F)nc1 [Cmpd 26] | 0% | – | – | 32% | 0% | 25% | 0% | – | – | –
14 | COc1cc(C(=O)NCc2ncc(C(F)(F)F)cc2Cl)cc(Cl)n1 [Cmpd 34] | – | – | – | 44% | 0% | 31% | – | – | – | –
15 | Nc1ncccc1C(=O)NCc1ncc(C(F)(F)F)cc1Cl [Cmpd 9] | 0% | – | – | 28% | 0% | 7% | 0% | – | – | –
16 | O=C(NCc1ncc(C(F)(F)F)cc1Cl)c1ccc(C(F)(F)F)nc1Br [Cmpd 18] | 0% | – | – | 9% | 0% | 32% | 80% | – | – | –
17 | Cc1ncccc1C(=O)NCc1ccc(Oc2cccc(C(F)(F)F)c2)nc1 [Cmpd 33] | – | – | – | – | 91% | 71% | – | – | – | –
18 | Cc1nc(C(F)(F)F)ccc1C(=O)NCc1ncc(C(F)(F)F)cc1Cl [Cmpd 20] | 8% | – | – | 28% | 0% | 25% | 87% | – | – | –
19 | CC(NC(=O)c1c(Cl)ccnc1Cl)c1ncc(C(F)(F)F)cc1Cl (single isomer, unassigned) [Cmpd 38] | – | – | – | – | – | – | – | 69* % | 0** % | –
20 | Cc1nc(Cl)ccc1C(=O)NCc1ncc(C(F)(F)F)cc1Cl [Cmpd 25] | 16% | – | – | 9% | 0% | 79% | 13% | – | – | –
21 | COc1nc(C(F)(F)F)ccc1C(=O)NCc1ncc(C(F)(F)F)cc1Cl [Cmpd 22] | 0% | – | – | 0% | 0% | 7% | 0% | – | – | –
22 | O=C(NCc1ncc(C(F)(F)F)cc1Cl)c1cccnc1Cl [Compound 5] | 98% | significant curative utility | – | 19% | – | – | – | – | – | 99%
23 | Cc1cnc(C(=O)NCc2ncc(C(F)(F)F)cc2Cl)c(Cl)c1 [Compound 2] | – | significant curative utility | – | – | 0% | 100% | – | – | – | 99%
24 | Cc1ccc(C(=O)NCc2ncc(C(F)(F)F)cc2Cl)c(Cl)n1 [Cmpd 14] | 98% | – | – | 19% | 0% | 100% | 90% | – | – | –
25 | Cc1nc(C(F)(F)C(F)(F)F)ccc1C(=O)NCc1ncc(C(F)(F)F)cc1Cl [Cmpd 21] | 8% | – | – | 68% | 69% | 16% | 88% | – | – | –
26 | O=C(NCc1ncc(C(F)(F)F)cc1Cl)c1cccnc1Nc1cccc(C(F)(F)F)c1 [Cmpd 27] | 16% | – | – | 0% | 0% | 32% | 0% | – | – | –
27 | O=C(NCc1ncc(C(F)(F)F)cc1Cl)c1cncc(C#Cc2ccccc2)c1 [Cmpd 17] | 0% | – | – | 0% | 13% | 25% | 0% | – | – | –
